Source: ChEMBL document CHEMBL1134750, “Structure-activity relationship on the human EP3 prostanoid receptor by use of solid-support chemistry” (Bioorg Med Chem Lett, 2001)

Columns and labels:
[1] = target: T1, Prostaglandin E2 receptor EP3 subtype (Homo sapiens) (UniProt P43115); assay: Residual binding of radiolabeled PGE-2 on the Prostanoid EP3 receptor at a concentration of 1 uM
T1 sequence (whole entry): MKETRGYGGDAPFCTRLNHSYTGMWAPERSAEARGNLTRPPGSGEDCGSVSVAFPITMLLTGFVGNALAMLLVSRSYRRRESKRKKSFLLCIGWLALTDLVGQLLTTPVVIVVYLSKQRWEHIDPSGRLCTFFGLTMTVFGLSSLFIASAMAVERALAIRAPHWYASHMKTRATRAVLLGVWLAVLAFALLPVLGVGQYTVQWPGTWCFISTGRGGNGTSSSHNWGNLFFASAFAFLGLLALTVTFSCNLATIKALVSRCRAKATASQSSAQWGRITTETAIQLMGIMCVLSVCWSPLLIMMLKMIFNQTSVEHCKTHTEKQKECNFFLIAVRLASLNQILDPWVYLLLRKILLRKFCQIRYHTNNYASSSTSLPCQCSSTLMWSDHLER

[2] = target: Prostaglandin E2 receptor EP4 subtype (Homo sapiens, UniProt P35408); assay: Antagonistic activity at Prostanoid EP4 receptor in human was determined; type: functional
Prostaglandin E2 receptor EP4 subtype, sequence (P35408 whole entry): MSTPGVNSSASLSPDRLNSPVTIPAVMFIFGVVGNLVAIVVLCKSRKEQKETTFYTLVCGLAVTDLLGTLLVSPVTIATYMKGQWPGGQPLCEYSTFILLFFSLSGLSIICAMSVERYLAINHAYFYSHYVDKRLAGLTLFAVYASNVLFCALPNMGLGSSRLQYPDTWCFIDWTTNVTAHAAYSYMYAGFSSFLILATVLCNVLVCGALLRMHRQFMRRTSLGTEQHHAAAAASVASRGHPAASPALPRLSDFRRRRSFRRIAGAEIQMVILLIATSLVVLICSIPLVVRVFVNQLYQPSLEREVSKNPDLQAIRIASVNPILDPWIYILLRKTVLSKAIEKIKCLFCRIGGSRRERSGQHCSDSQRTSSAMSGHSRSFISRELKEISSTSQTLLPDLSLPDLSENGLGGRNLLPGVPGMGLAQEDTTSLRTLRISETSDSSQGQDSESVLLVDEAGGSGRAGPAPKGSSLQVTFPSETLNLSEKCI

[3] = target: T2, Thromboxane A2 receptor (Homo sapiens, UniProt P21731); assay: Antagonistic activity at Thromboxane A2 receptor in human was determined; type: functional
T2 sequence (P21731 whole entry): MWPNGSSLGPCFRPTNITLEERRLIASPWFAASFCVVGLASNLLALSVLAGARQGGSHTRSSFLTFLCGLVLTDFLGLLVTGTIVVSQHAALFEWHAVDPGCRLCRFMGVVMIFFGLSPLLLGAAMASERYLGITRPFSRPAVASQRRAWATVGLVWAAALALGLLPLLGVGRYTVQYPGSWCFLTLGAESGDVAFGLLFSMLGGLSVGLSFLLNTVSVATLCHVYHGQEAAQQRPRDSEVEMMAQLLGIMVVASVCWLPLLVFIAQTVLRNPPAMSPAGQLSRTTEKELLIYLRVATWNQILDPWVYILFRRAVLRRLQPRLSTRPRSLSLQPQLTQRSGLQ

[4] = target: Prostaglandin E2 receptor EP2 subtype (Homo sapiens, UniProt P43116); assay: Antagonistic activity at Prostanoid EP2 receptor in human was determined; type: functional
Prostaglandin E2 receptor EP2 subtype, sequence (P43116 whole entry): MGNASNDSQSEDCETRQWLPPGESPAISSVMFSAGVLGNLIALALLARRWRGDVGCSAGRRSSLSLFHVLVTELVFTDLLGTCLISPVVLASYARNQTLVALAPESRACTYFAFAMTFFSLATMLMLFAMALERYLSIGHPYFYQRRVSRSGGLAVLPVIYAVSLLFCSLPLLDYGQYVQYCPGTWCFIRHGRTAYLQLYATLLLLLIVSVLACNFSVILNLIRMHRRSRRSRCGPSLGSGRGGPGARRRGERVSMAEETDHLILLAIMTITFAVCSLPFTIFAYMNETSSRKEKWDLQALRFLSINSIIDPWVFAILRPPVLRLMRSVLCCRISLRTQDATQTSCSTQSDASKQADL

[5] = target: T3, Prostaglandin E2 receptor EP1 subtype (Homo sapiens, UniProt P34995); assay: Antagonistic activity at Prostanoid EP1 receptor in human was determined; type: functional
T3 sequence (P34995 whole entry): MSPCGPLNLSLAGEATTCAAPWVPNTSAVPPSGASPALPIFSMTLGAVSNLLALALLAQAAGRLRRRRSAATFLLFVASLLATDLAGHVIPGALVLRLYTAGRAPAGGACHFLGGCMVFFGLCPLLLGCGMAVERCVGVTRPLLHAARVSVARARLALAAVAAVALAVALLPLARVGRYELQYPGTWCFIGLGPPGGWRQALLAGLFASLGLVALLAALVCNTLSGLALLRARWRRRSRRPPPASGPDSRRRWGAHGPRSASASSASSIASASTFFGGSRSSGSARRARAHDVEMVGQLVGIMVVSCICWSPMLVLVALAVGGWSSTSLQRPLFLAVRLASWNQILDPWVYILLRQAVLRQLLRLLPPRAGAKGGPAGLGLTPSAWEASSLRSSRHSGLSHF

[6] = target: Prostacyclin receptor (Homo sapiens, UniProt P43119); assay: Antagonistic activity at Prostanoid IP receptor in human was determined; type: functional
Prostacyclin receptor, sequence (P43119 whole entry): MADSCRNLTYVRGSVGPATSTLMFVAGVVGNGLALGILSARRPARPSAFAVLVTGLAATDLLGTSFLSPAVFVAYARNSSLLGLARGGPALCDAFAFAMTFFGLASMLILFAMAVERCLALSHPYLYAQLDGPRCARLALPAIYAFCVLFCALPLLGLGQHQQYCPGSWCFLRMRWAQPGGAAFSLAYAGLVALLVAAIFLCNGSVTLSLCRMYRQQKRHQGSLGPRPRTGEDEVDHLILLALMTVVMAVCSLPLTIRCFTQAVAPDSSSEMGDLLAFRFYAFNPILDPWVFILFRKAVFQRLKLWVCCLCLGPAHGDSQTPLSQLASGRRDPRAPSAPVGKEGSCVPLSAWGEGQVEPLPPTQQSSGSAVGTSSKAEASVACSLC

[7] = target: Prostaglandin F2-alpha receptor (Homo sapiens, UniProt P43088); assay: Antagonistic activity at Prostanoid FP receptor in human was determined; type: functional
Prostaglandin F2-alpha receptor, sequence (P43088 whole entry): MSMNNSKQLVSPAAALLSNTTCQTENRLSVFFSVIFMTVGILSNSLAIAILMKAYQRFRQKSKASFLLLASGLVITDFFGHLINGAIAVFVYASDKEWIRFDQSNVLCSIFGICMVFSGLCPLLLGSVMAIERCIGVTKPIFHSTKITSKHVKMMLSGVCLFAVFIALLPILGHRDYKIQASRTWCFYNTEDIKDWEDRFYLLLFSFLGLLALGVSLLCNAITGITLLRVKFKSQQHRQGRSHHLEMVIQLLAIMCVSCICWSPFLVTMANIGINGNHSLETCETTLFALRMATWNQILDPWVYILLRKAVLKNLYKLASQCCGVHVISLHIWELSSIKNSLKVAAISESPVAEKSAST

[8] = target: T4, Prostaglandin E2 receptor EP3 subtype (Homo sapiens, UniProt P43115); assay: Antagonistic activity at Prostanoid EP3 receptor in human was determined; type: functional
T4 sequence (P43115 whole entry): T1 sequence (whole entry)

[9] = target: T5, Prostaglandin D2 receptor (Homo sapiens, UniProt Q13258); assay: Antagonistic activity at Prostanoid DP receptor in human was determined; type: functional
T5 sequence (Q13258 whole entry): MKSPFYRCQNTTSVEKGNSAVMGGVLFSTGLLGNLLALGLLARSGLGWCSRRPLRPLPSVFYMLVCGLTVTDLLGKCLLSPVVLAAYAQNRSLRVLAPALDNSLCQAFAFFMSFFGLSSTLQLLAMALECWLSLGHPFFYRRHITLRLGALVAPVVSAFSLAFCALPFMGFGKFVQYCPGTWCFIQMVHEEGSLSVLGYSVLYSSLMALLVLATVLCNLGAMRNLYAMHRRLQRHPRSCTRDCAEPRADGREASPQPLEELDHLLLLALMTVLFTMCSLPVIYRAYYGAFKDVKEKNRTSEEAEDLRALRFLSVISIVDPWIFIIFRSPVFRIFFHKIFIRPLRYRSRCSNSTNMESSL

## OB(O)c1ccsc1
[1]
  Residual binding: 77%

## OB(O)c1ccccc1C(F)(F)F
[1]
  Residual binding: 89%

## OB(O)c1cccc(C(F)(F)F)c1
[1]
  Residual binding: 54%

## OB(O)c1ccc2ccccc2c1
[1]
  Residual binding: 5%

## OB(O)c1cccc(CSCCc2ccccc2)c1
[1]
  Residual binding: 52%

## OB(O)c1ccco1
[1]
  Residual binding: 91%

## CSc1ccc(Cc2ccccc2/C=C/C(=O)O)cc1
[2]
  Ki: > 50 µM
[3]
  Ki: 4.6 µM
[4]
  Ki: 43 µM
[5]
  Ki: > 100 µM
[6]
  Ki: > 76 µM
[7]
  Ki: > 83 µM
[8]
  Ki: 0.08 µM
[9]
  Ki: 4.1 µM

## CSc1ccccc1B(O)O
[1]
  Residual binding: 96%

## OCc1cccc(B(O)O)c1
[1]
  Residual binding: 84%

## COc1ccc(B(O)O)cc1OC
[1]
  Residual binding: 84%

## OB(O)c1ccc(Cl)c(Cl)c1
[1]
  Residual binding: 8%

## COc1ccccc1B(O)O
[1]
  Residual binding: 93%

## OB(O)c1cc2ccccc2o1
[1]
  Residual binding: 61%

## OB(O)c1cccs1
[1]
  Residual binding: 74%

## O=C(O)/C=C/c1ccccc1Cc1ccc(Cl)cc1Cl
[2]
  Ki: > 40 µM
[3]
  Ki: 0.52 µM
[4]
  Ki: 4.1 µM
[5]
  Ki: > 100 µM
[6]
  Ki: 31 µM
[7]
  Ki: 63 µM
[8]
  Ki: 0.11 µM
[9]
  Ki: 2.5 µM

## O=C(O)/C=C/c1ccccc1Cc1ccc2ccccc2c1
[2]
  Ki: 3.1 µM
[3]
  Ki: 10 µM
[4]
  Ki: 12 µM
[5]
  Ki: > 100 µM
[6]
  Ki: > 100 µM
[7]
  Ki: 69 µM
[8]
  Ki: 0.02 µM
[9]
  Ki: 0.53 µM

## OB(O)c1cccc(Cl)c1
[1]
  Residual binding: 55%

## CSc1ccc(B(O)O)cc1
[1]
  Residual binding: 27%

## OB(O)c1ccc(Cl)cc1Cl
[1]
  Residual binding: 25%

## O=C(O)/C=C/c1ccccc1Cc1ccc(Cl)c(Cl)c1
[2]
  Ki: 10 µM
[3]
  Ki: 0.9 µM
[4]
  Ki: 13 µM
[5]
  Ki: 63 µM
[6]
  Ki: 37 µM
[7]
  Ki: 41 µM
[8]
  Ki: 0.032 µM
[9]
  Ki: 2.4 µM

## OB(O)c1cccc2ccccc12
[1]
  Residual binding: 48%

## OB(O)c1ccccc1CSCCc1ccccc1
[1]
  Residual binding: 68%

## CC(C)(C)NS(=O)(=O)c1ccc(B(O)O)cc1
[1]
  Residual binding: 100%
